This is an account of results in patent US9173425B2, “High-potency sweetener composition with vitamin and compositions sweetened therewith” (THE COCA-COLA COMPANY, priority 2005, dated 2015).

A short description of data set [1]: Rate of dissolution of rebaudioside A polymorphs in H2O at 25° C. The data set is classed as physicochemical. The conditions noted are these: result in words. From the text:
(§1) The purification of rebaudioside A by crystallization as described above results in the formation of at least four different polymorphs: Form 1: a rebaudioside A hydrate; Form 2: an anhydrous rebaudioside A; Form 3: a rebaudioside A solvate; and Form 4: an amorphous rebaudioside A. The aqueous organic solution and temperature of the purification process influence the resulting polymorphs in the substantially pure rebaudioside A composition. FIGS. 1-5 are exemplary powder x-ray diffraction (XRPD) scans of polymorphs Form I (hydrate), Form 2 (anhydrate), Form 3A (methanol solvate), Form 3B (ethanol solvate), and Form 4 (amorphous), respectively.

The nature of data set [2]: Alcohol content of rebaudioside A polymorphs. Type of data set: physicochemical.
From the text: as §1

Data set [3] is described as follows: Moisture content of rebaudioside A polymorphs. Type of data set: physicochemical.
From the text: as §1

Data set [4] has as its system panel of experts in the sensory evaluation of foods and beverages. The experiment in a line: Sensory evaluation of sweetness linger and sugar-like taste by expert panel. More on the design: key: 0=no sweetness linger; 1=very slight sweetness linger; 2=slight sweetness linger; 3=moderate sweetness linger; 4=moderately high sweetness linger; 5=high sweetness linger. The data set is classed as in vivo, human. Conditions: for Sweetness Linger rating defined by protocol: scale anchors: sucrose, 500 ppm of REBA control sample. On the procedure:
Sensory evaluation of the samples prepared in Example Set G was carried out under the following protocol, similar to that described hereinabove. In this test protocol, none of the samples were swallowed. All samples were expectorated and the mouth was rinsed with water after the tasting. Immediately upon sensing maximal sweetness, the sample was expectorated, the mouth was rinsed with water and the rate of sweetness decay (“Sweetness Linger”) was measured, where attention was focused on the sweetness 3-4 min after the water rinse. After sample tasting was complete, a salty oyster cracker was chewed followed by a water rinse, and at least 5 minutes followed before tasting the next sample. The sweetness linger was rated by a panel of experts in the sensory evaluation of foods and beverages using the following scale: 0=no sweetness linger, 1=very slight sweetness linger, 2=slight sweetness linger, 3=moderate sweetness linger, 4=moderately high sweetness linger, 5=high sweetness linger.
The “Sweetness Linger” rating for sucrose observed by this protocol is defined as 0. The Sweetness Linger of a 500 ppm of REBA control sample is defined as 5. Experimental samples were tasted by the same protocol, always allowing sufficient time between samples to ensure re-equilibration of the sensory system. Re-tasting of control samples during the course of the experiment was allowed and encouraged.
The comparison taste test was performed between two controls and addition of sweet taste improving additive on the onset and/or sweetness linger.
Sweet taste improving compositions were combined with a REBA solution to determine their effect on sweetness linger. Screening of the initial sample, or further dilutions, allowed identification of concentrations which were just above-threshold, herein defined as “near-threshold concentrations.” The near-threshold additive concentrations, a 6- to 100-fold higher additive concentration (depending on the off-taste intensity), and a mid-level additive concentration (halfway between the near-threshold and higher additive concentration) were evaluated to determine the effect on sweetness linger of a REBA solution. […]
Sensory evaluation using the protocol described in Example Set G then was used to evaluate the sweetness linger of the REBA solutions.

Data set [5] is classed as physicochemical. On the procedure: A solution of rebaudioside A (>97% pure by HPLC) was prepared in double distilled water (12.5 gm in 50 mL, 25% concentration) by stirring the mixture at 40° C. for 5 minutes. An amorphous rebaudioside A polymorph was formed by immediately using the clear solution for spray drying with the Lab-Plant spray drier SD-04 instrument (Lab-Plant Ltd., West Yorkshire, U.K.). The solution was fed through the feed pump into the nozzle atomizer which atomized it into a spray of droplets with the help of a constant flow of nitrogen/air. […] This dry powder (11-12 g, H2O 6.74%) was discharged continuously from the drying chamber and was collected in a bottle.

Data set [6] can be described thus: Sweetness level as sucrose equivalent.

Consider rebaudioside A [Form 3], for which, in data set [1], the “Rate of dissolution in H2O at 25° C.” value is on record as “High”. The Alcohol content in data set [2] is recorded as 1-3%. In data set [3], the Moisture content is listed as less than 3%.

On to `OC[C@H]1O[C@@](CO)(O[C@H]2O[C@H](CO)[C@@H](O)[C@H](O)[C@H]2O)[C@@H](O)[C@@H]1O` [sugar, sucrose], for which the “Sweetness Linger rating defined by protocol” value in data set [4] turned out to be 0.

rebaudioside A [Form 2]: the “Rate of dissolution in H2O at 25° C.” value in data set [1] is reported as “Intermediate”. In data set [2], this compound displayed an Alcohol content of less than 1%. Also, the Moisture content in data set [3] is less than 1%.

For rebaudioside A [Form 4], the “Rate of dissolution in H2O at 25° C.” value in data set [1] was “High”. For the same compound, the “solubility in water at room temperature” value in data set [5] is recorded as more than 35.0%. Also, the Moisture content in data set [3] is given as 6.74%.

On to rebaudioside A [Form 1], for which the “Rate of dissolution in H2O at 25° C.” value in data set [1] is on record as “Very low”. Also, the Alcohol content in data set [2] is on record as less than 0.5%. In data set [3], this compound had a Moisture content of more than 5%.

Turning to rebaudioside A, the sweetness linger rating in data set [4] (control: 400 ppm REBA in citric acid/potassium citrate composition, no additive) came to 5; in data set [4] (control: 500 ppm REBA in carbon-treated water, phosphoric acid (75%) pH 2.4-2.5), 5. Moreover, the “Sweetness Linger rating defined by protocol” value in data set [4] is given as 5. Besides, the “sucrose equivalence of sweetness” value worked out at 5 % sucrose in data set [6] (180 ppm rebaudioside A in 1:1 diluted beverage) and 8 g sucrose in data set [6] (400 ppm REBA in citric acid/potassium citrate composition).
